Measurements as given in ChEMBL document CHEMBL1201862, “PubChem BioAssay data set” (2004).
Calls of active or inactive are those of the source.

What was measured:
[1] = target: Delta-type opioid receptor (Homo sapiens, UniProt P41143); test: HTS Image-Based Screen for Agonists of the DOR Receptor. [Related pubchem assays (depositor defined):AID1777, AID1786, AID2133]; format: functional
[2] = inhibitors of intracellular T. cruzi replication, confirmation, NIH3T3 host cells, beta-gal luminescence (AID 2044); format: functional, cell-based;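 further: intracellular parasites grown in NIH/3T3 mouse fibroblasts as host cells; luminescent beta-galactosidase reporter signal from transgenic T. cruzi replicating inside host cells; inhibitors lower the luminescence signal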
[3] = target: T1, Heat shock factor protein 1 (Mus musculus, UniProt P38532); test: HSF1 potentiators in luciferase reporter cells, confirmation, cell-based, NIH3T3, luminescence, dose retest (AID 435004); format: functional;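 further: stress induced by proteasome inhibitor MG132 added 30 min after compound; luciferase reporter driven by HSF1 response element in NIH3T3 cells; actives raise luminescence as potentiators of the MG132 stress response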
T1 sequence (P38532 whole entry): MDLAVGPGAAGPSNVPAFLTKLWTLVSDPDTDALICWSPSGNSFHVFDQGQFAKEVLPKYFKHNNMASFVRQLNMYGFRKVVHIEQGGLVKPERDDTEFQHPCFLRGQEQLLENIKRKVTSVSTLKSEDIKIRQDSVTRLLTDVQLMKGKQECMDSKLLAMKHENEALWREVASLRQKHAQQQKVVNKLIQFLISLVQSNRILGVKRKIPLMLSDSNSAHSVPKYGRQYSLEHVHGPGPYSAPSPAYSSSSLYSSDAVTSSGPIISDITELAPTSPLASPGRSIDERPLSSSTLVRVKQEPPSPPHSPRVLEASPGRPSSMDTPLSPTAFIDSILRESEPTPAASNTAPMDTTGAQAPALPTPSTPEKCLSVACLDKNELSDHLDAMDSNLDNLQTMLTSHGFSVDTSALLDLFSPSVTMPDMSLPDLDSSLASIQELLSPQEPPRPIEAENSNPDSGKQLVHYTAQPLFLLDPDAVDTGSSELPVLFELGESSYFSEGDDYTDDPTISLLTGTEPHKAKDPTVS

Protein RecA = target: T2, Protein RecA (Mycobacterium tuberculosis, UniProt P9WHJ3); test: Fluorescence Cell-Free Homogeneous Dose Retest to Identify Inhibitors of RecA-Intein Splicing Activity. [Related pubchem assays (depositor defined):AID2097, AID2223, AID489010, AID492950]; format: functional
T2 sequence (P9WHJ3 whole entry): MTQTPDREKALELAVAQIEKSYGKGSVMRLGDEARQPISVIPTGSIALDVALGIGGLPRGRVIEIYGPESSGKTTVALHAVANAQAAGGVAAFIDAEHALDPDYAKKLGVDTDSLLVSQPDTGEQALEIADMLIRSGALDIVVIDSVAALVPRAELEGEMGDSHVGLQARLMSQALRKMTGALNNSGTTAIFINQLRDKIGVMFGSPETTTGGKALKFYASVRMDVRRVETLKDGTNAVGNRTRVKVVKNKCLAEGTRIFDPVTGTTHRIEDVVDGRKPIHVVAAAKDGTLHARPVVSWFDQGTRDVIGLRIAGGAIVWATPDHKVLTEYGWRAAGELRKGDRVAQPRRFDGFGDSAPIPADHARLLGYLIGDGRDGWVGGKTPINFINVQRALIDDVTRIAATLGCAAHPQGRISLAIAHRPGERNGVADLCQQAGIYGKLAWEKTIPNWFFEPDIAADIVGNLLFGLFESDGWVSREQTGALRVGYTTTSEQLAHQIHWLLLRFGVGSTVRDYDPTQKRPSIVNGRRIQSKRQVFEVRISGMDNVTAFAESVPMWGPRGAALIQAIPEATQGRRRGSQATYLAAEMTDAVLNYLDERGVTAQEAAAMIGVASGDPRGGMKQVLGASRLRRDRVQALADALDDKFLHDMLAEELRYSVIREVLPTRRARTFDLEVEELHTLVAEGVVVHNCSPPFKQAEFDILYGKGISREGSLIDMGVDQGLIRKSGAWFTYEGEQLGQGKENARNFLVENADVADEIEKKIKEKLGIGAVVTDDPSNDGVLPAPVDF

[4] = target: Tyrosine-protein phosphatase non-receptor type 11 (Homo sapiens, UniProt Q06124); test: SHP2 phosphatase inhibition, dose response, selectivity assay for STEP inhibitor project, biochemical (AID 602367); format: functional; conditions: read-out: IC50_Mean
Caspase-6 = target: T3, Caspase-6 (Homo sapiens, UniProt P55212); test: human caspase-6 inhibitors, dose response, biochemical, VEID-R110 fluorescence, cherry-pick (AID 720632)
T3 sequence (P55212 whole entry): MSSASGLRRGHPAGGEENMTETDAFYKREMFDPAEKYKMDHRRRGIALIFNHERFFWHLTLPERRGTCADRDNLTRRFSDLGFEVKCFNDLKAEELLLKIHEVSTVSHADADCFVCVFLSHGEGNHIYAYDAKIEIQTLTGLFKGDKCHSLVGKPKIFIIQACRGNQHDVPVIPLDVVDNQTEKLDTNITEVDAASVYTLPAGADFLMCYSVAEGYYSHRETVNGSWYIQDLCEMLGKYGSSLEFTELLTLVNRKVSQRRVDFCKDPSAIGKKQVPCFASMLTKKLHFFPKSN

Chain of Tyrosine-protein phosphatase non-receptor type 11 (Q06124 whole entry): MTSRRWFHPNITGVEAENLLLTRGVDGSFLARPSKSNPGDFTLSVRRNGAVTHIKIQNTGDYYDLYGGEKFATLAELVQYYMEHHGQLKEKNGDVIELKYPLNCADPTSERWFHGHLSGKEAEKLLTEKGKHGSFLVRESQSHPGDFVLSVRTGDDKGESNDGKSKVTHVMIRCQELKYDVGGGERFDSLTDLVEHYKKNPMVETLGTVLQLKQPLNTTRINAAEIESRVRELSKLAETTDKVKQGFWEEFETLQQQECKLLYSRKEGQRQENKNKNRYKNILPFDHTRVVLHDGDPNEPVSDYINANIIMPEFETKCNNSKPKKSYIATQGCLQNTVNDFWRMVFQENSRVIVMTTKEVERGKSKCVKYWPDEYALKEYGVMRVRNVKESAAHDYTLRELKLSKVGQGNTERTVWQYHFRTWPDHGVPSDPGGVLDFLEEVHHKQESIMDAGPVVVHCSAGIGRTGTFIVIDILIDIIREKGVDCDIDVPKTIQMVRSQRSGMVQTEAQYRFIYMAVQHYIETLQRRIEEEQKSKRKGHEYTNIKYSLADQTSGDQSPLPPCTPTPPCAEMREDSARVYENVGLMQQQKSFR
Chain of Delta-type opioid receptor (P41143 whole entry): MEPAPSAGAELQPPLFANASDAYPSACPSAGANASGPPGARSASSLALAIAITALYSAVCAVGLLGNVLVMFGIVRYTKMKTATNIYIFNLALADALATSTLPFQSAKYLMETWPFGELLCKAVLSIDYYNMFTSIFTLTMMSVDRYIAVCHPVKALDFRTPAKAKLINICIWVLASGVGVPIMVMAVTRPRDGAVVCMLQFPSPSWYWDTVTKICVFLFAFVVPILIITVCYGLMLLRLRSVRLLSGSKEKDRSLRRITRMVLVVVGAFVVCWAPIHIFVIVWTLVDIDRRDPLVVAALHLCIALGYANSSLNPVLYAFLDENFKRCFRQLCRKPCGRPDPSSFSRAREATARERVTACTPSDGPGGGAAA

Structure (SMILES) | EC50 [1] | EC50 [2] | EC50 [3] | EC50 (Protein RecA) | IC50 [4] | AC50 (Caspase-6)
O=[N+]([O-])c1c(Nc2ccccc2O)cc(Cl)c2nonc12 | > 32000 nM (inactive) | 1790 nM (active) | 3490 nM (inconclusive) | 1210 nM (active) | – | –
O=S(=O)(O)c1cc(O)c2cc(Nc3ccccc3)ccc2c1 | – | – | – | – | 335 nM (active) | 403 nM (active)
